Assays:
[1] = molecular target: T1, PPK12 (Drosophila melanogaster, UniProt Q9W250); assay: two-electrode voltage clamp of Xenopus oocytes, block of NMDG-sensitive constitutive current; type: cell-based
T1 construct: cRNA expressed alone in Xenopus laevis oocytes; DEG/ENaC family members are trimers
T1 sequence (Q9W250 1-569): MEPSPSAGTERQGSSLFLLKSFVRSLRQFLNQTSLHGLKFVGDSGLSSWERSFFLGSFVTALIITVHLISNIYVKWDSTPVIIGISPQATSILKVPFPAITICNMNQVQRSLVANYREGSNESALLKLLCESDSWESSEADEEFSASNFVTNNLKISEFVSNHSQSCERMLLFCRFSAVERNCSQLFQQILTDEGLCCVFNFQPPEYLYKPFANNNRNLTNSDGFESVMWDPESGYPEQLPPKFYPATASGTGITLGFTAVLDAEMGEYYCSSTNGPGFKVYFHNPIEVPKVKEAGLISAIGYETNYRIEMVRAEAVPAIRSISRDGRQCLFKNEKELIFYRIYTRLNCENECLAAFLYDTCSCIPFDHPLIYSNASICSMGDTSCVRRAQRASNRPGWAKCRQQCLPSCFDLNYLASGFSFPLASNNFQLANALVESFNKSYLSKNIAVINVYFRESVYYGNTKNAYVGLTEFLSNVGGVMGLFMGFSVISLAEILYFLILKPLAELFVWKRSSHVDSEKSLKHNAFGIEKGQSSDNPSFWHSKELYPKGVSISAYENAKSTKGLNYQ

[2] = molecular target: T1, PPK12; assay: two-electrode voltage clamp of Xenopus oocytes, inhibition of total constitutive current; type: cell-based; conditions: 140 mM NaCl bath, pH 7.4, -70 mV; only part of current carried by PPK12

| SMILES | IC50 [1] | % inhibition at 100 μM [2] |
| --- | --- | --- |
| N=C(N)c1ccc(/N=N/Nc2ccc(C(=N)N)cc2)cc1 [diminazene] | 110 ± 10 µM |  |
| NC(=NC(=O)c1nc(Cl)c(N)nc1N)NCc1ccccc1 [benzamil] |  | amiloride, its analog benzamil, and diminazene–partially and reversibly inhibited constitutive currents in PPK12-expressing oocytes |
| N=C(N)NC(=O)c1nc(Cl)c(N)nc1N [amiloride] | 220 ± 20 µM |  |

Source: article PMC12304301, “The Drosophila DEG/ENaC PPK12 is a Na^+ leak channel with a low Na^+ affinity” (Scientific Reports, 2025)
